Test results reported in article PMC5934630 (2018).

How the values were obtained:
[1] = system: MA-L (DNA, aptamer) CAGAACTTACGACTCAGGCATTTTGCCGGGTAACGAAGTTACTGTCGTAAG; assay: ITC; settings: Na+ 20 mM, Mg2+ 0.5 mM
[2] = system: MA (DNA, aptamer) CTTACGACTCAGGCATTTTGCCGGGTAACGAAGTTACTGTCGTAAG; assay: ITC; settings: Na+ 20 mM, Mg2+ 0.5 mM

KD [1]: 6.2 µM | KD [2]: 6.1 ± 0.2 µM
Compound: CCCC(C(=O)c1ccc2c(c1)OCO2)N1CCCC1 (centres unmarked)
